Experimental data: patent publication US10124035B2, “DISC-1 pathway activators in the control of neurogenesis” (Massachusetts Institute of Technology, priority 2008, dated 2018)
Entries after “also recorded” stand apart in the source; their conditions may differ.

Assays:
[1] = test system: DISC1 shRNA injected mice; assay: Open Field test (hyperlocomotion in response to novelty); type: in vivo, mouse; conditions: for hyperlocomotion/hyperactivity in novel open field: DISC1 shRNA injected mice, SB-216763 2 mg/kg i.p.
Procedure: (§1) Behavioral abnormalities in DISC1 knockdown mice. a. DISC1 knockdown in adult dentate gyms caused increased hyperactivity in the Open Field Test. b and c. DISC1 knockdown in adult dentate gyms caused depressive-like behavior in the Forced Swimming test and the Novelty Suppression Feeding experiment. b. Forced Swimming Test Mice were put in the beaker with water for 6 minutes and counted the last 4 minutes for the time of immobility. c. Novelty Suppression Feeding Test. Mice were restricted with food for 48 hours and tested for the motivation to eat food. Mice were tested the latency for first bite, the time they spent on food, and the time they ate during 5 minutes. d. […] Mice were injected and allowed to recover for 2 weeks, then treated with the GDK3beta inhibitor SB216763 at 2 mg/kg/day for two weeks, after that the behavioral test was performed.
Alterations in neurogenesis are implicated in the development of depression and other abnormal behaviors. To examine the behavioral consequences of disrupting the DICS1/GSK3β pathway, we silenced DISC1 expression in the adult dentate gyms and evaluated behavioral consequences. Four weeks after the injection of control or DISC1 shRNA-1 lentivirus, mice were treated with vehicle or SB-216763 (2 mg/kg i.p.) every other day for 10 days. […] DISC1 shRNA injected mice traveled a greater distance and spent more time moving in a novel open field than control mice (FIG. 17A). These behaviors were normalized by SB-216763 treatment. We further tested whether DISC1 loss-of-function had consequences on depression-like behavior in the forced swim test. […] Importantly, swimming velocity was unchanged. […] Thus, increased GSK3β activity caused by DISC1 loss-of-function is associated with schizophrenia- and depression-like behaviors.

[2] = test system: DISC1 shRNA infected mice; assay: Forced swim test; type: in vivo, mouse
Procedure: as §1
Alterations in neurogenesis are implicated in the development of depression and other abnormal behaviors. To examine the behavioral consequences of disrupting the DICS1/GSK3β pathway, we silenced DISC1 expression in the adult dentate gyms and evaluated behavioral consequences. Four weeks after the injection of control or DISC1 shRNA-1 lentivirus, mice were treated with vehicle or SB-216763 (2 mg/kg i.p.) every other day for 10 days. […]

[3] = test system: adult progenitor proliferation in dentate gyrus; assay: Adult progenitor proliferation in dentate gyrus (BrdU) after lentivirus injection; type: in vivo
Source text: Cell positioning and BrdU incorporation defects caused by DISC1 loss-of-function are rescued by human WT-DISC1 or SA-β-catenin. The percentage of GFP positive cells in the SVZ/VZ or CP is shown (n=5, **, p<0.01; ***, p<0.005). Scale bar=20 μm. b. The reduction in mitotic index caused by DISC1 knockdown in embryonic brains is rescued by human WT-DISC1 or SA-β-catenin. Arrows indicate GFP and pH3 double positive cells. Shown is the percentage of GFP and pH3 double positive cells in total GFP positive cells (n=4, *, p<0.05; ***, p<0.005). Scale bar=20 μm. c. Control or DISC1 shRNA-1 lentivirus was stereotactically injected into adult dentate gyms. After 4 weeks of recovery, mice received SB216763 (2 mg/kg) every other day for 2 weeks and BrdU (100 mg/kg) daily for 7 days. The GFP signal represents lentiviral infected cells in dentate gyms. Scale bar=50 μm. d. […] The percentage of GFP and BrdU double positive cells is shown (n=5, *, p<0.05; **, p<0.01; ***, p<0.005; ns, not significant). Scale bar=10 μm.
• Mice. Swiss Webster pregnant female mice were purchased from Taconic (Hudson, N.Y.). • Cell Culture. AHPs were kindly provided by Dr. Gage (Lie, D. C. et al. Wnt signaling to regulates adult hippocampal neurogenesis. Nature 437, 1370-5 (2005)) and cultured under conditions described previously (Palmer, T. D., Takahashi, J. & Gage, F. H. The adult rat hippocampus contains primordial neural stem cells. Mol Cell Neurosci 8, 389-404 (1997)). Primary neural progenitors were isolated from E14 mouse embryos and cultured as described previously (Sanada, K. & Tsai, L. H. G protein betagamma subunits and AGS3 control spindle orientation and asymmetric cell fate of cerebral cortical progenitors. Cell 122, 119-31 (2005)). N2a and 293T cells were cultured in DMEM medium containing 10% FBS, L-glutamine, and penicillin/streptomycin. Wnt3a expressing L cells and untransfected L cells were obtained from ATCC (Manassas, Va.). Wnt3a conditional medium was produced according to the ATCC protocol. To induce AHP differentiation, FGF2 was removed from the culture medium and 1 μM retinoic acid/1% FBS was added to the medium for 4 days. • Reagents. Recombinant Wnt3a protein was obtained from Chemicon (Rosemont, Ill.). FGF2 was obtained from PeproTech (Rocky Hill, N.J.). Recombinant GST-GSK3β was obtained from Active Motif (Carlsbad, Calif.). Recombinant GST-β-catenin and GST-axin were obtained from Millipore (Billerica, Mass.). The GSK313 inhibitor, SB-216763, AR-A104418 and His-GSK3β, were obtained from Sigma-Aldrich (Sigma-Aldrich, St. Louis, Mo.). L803-MTS was obtained from Calbiochem (San Diego, Calif.). GST-AKT1 was obtained from Cell Signaling (Beverly, Mass.). […]

[4] = test system: DISC1 knockdown AHP cells; assay: BrdU incorporation in DISC1 knockdown progenitor cells; type: cell-based; conditions: SB-216763 5 μM for 16 hours, 10 μM BrdU for 2 hours
Procedure: Primary neural stem cells from E14 brains were infected with control or DISC1 shRNA lentiviruses. 48 hours after to transduction, cells were treated with vehicle or SB-216763 (5 μM) for 16 hours and then pulsed with 10 μM BrdU for 2 hours. Shown is percentage of GFP and BrdU double positive cells to total GFP positive cells (n=3, p<0.05). b. […] 1.5 μg of vector or WT-DISC1 was cotransfected with 0.5 μg control or DISC1 shRNA-2, 0.1 μg TCF reporter, and 10 ng pRL-TK vector into 293T cells. 48 hours after transfection, Wnt3a conditional medium with vehicle, SB-216763, or AR-A104418 was added for another 16 hours.
If DISC1 functions to inhibit GSK3β activity, the negative effects of DISC1 silencing on proliferation should be alleviated by GSK3β loss-of-function. We examined the consequence of treating DISC1 knockdown AHP cells with SB-216763, a specific chemical inhibitor of GSK3β. […] These experiments further support a role of DISC1 in controlling cell proliferation via modulation of GSK3β.

[5] = lentivirus in adult dentate gyrus, compared to control mice

Molecule	locomotion in novel open field [1, 5]	immobility in forced swim test [2, 5]	active caspase 3 labeling in GFP positive cells in the dentate gyrus ([3]; lentivirus injected adult mice)	BrdU incorporation in adult dentate gyrus ([3]; lentivirus injected, compared to control shRNA cells)	hyperlocomotion/hyperactivity in novel open field ([1]; 2 mg/kg)	hyperlocomotion/hyperactivity in novel open field ([1]; listed as SB216763, 2 mg/kg)	cell proliferation by BrdU incorporation in DISC1 knockdown cells [4]	immobility in forced swim test ([2]; DISC1 shRNA infected mice, SB-216763 2 mg/kg i.p.)	BrdU positive cells in dentate gyrus ([3]; DISC1 shRNA-1 infected mice, SB216763 2 mg/kg for 2 weeks, 2 mg/kg)	number of BrdU positive cells in dentate gyrus ([3]; mice infected with control virus, SB216763 2 mg/kg for 2 weeks)
DISC1 shRNA-1: shRNA targeting rat and mouse DISC1, SEQ ID NO:4, in pLentiLox 3.7 vector (GGCAAACACTGTGAAGTGC)	hyperlocomotion in response to novelty	greater immobility	no increase in active caspase 3 labeling	significant reduction in BrdU incorporation						
Cn1cc(C2=C(c3ccc(Cl)cc3Cl)C(=O)NC2=O)c2ccccc21 [SB-216763]					normalized	can be rescued	restored the cell proliferation impaired by DISC1 knockdown; also recorded: can rescue DISC-1 knockdown-induced proliferation defects	suppressed	no longer exhibited a reduction in BrdU positive cells; also recorded: can be rescued	significantly increased the number of BrdU positive cells
